Experimental data as given in patent US20220280476A1, “KCNT1 INHIBITORS AND METHODS OF USE” (Praxis Precision Medicines, Inc., priority 2019, published 2022).

Target: T1, KCNT1 (KNa1.1, Slack) (Homo sapiens, UniProt Q5JUK3)
T1 construct: expressed in transfected cells; host or cells: HEK-TREX (tetracycline-inducible HEK cell line)
T1 sequence (Q5JUK3 1-1230): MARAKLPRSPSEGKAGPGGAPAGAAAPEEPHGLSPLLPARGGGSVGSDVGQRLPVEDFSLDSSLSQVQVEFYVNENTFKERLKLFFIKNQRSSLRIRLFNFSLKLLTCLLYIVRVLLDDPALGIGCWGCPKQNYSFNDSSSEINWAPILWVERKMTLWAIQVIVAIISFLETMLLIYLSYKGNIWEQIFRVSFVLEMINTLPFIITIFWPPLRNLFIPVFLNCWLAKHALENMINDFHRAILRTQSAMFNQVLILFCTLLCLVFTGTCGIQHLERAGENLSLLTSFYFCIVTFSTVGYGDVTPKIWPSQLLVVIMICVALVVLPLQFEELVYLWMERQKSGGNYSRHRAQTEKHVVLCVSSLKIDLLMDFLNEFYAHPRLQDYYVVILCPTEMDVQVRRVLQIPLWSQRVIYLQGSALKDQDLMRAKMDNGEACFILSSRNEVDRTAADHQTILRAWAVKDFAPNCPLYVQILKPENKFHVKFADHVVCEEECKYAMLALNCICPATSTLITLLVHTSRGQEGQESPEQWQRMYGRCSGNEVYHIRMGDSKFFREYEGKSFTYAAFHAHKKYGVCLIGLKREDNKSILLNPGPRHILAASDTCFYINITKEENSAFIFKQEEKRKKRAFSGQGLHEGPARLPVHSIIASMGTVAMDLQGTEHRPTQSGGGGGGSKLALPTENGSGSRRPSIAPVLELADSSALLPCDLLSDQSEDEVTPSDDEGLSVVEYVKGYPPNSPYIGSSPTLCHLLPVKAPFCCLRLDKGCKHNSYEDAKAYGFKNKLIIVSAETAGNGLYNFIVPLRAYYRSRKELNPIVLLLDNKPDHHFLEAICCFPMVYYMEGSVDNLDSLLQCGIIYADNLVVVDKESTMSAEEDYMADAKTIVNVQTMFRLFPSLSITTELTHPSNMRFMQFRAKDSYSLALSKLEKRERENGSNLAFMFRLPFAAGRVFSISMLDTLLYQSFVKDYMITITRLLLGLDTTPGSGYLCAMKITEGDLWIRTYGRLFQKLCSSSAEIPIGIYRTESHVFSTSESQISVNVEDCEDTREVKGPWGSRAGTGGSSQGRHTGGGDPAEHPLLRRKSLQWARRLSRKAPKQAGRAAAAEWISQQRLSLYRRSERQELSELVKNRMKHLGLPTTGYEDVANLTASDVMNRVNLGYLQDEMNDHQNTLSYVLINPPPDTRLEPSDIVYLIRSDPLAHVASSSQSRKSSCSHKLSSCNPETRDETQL
Experiment: KCNT1-WT-Basal patch clamp assay (SyncroPatch 384PE, HEK-TREX inducible cell line)
Format: cell-based
Conditions: tetracycline inducible HEK-TREX cells; perforated patch; holding -80 mV, 100 ms step to 0 mV; room temperature; read-out: KCNT1 WB IC50
Procedure: KCNT1-WT-Basal—Patch Clamp Assay
Inhibition of KCNT1 (KNa1.1, Slack) was evaluated using a tetracycline inducible cell line (HEK-TREX). Currents were recorded using the SyncroPatch 384PE automated, patch clamp system. Pulse generation and data collection were performed with PatchController384 V1.3.0 and DataController384 V1.2.1 (Nanion Technologies). The access resistance and apparent membrane capacitance were estimated using built-in protocols. Current were recorded in perforated patch mode (10 μM escin) from a population of cells. The cells were lifted, triturated, and resuspended at 800,000 cells/ml. The cells were allowed to recover in the cell hotel prior to experimentation. Currents were recorded at room temperature. The external solution contained the following (in mM): NaCl 105, NMDG 40, KCl 4, MgCl2 1, CaCl2 5 and HEPES 10 (pH=7.4, Osmolarity ˜300 mOsm). The extracellular solution was used as the wash, reference and compound delivery solution. The internal solution contained the following (in mM): NaCl 70, KF 70, KCl 10, EGTA 5, HEPES 5 and Escin 0.01 (pH=7.2, Osmolarity ˜295 mOsm). Escin is made at a 5 mM stock in water, aliquoted, and stored at −20° C. The compound plate was created at 2× concentrated in the extracellular solution. The compound was diluted to 1:2 when added to the recording well. The amount of DMSO in the extracellular solution was held constant at the level used for the highest tested concentration. A holding potential of −80 mV with a 100 ms step to 0 mV was used. Mean current was measured during the step to 0 mV. […] The average mean current from 3 sweeps was calculated and the % inhibition of each compound was calculated. The % Inhibition as a function of the compound concentration was fit with a Hill equation to derive IC50, slope, min and max parameters. If KCNT1 inhibition was less than 50% at the highest tested concentration or if an IC50 could not be calculated, then a percent inhibition was reported in place of the IC50.

CNS(=O)(=O)c1ccc(C(=O)N[C@H]2CCCc3cc(Cl)ccc32)s1 (single isomer, unassigned) [Compound I-22] and CNS(=O)(=O)c1ccc(C(=O)N[C@@H]2CCCc3cc(Cl)ccc32)s1 (single isomer, unassigned) [Compound I-23] cannot be ordered by IC50: ≤ 1 µM for the first, 1 to 20 µM for the second.

Going from CS(=O)(=O)c1ccc(C(=O)N[C@H]2CCCc3cc(Cl)ccc32)s1 (single isomer, unassigned) [Compound I-24] to CS(=O)(=O)c1ccc(C(=O)N[C@@H]2CCCc3cc(Cl)ccc32)s1 (single isomer, unassigned) [Compound I-25], the IC50 rises from ≤ 1 µM to ≥ 20 µM.

Going from NC(=O)c1ccc(C(=O)N[C@H]2CCCc3cc(Cl)ccc32)s1 (single isomer, unassigned) [Compound I-30] to NC(=O)c1ccc(C(=O)N[C@@H]2CCCc3cc(Cl)ccc32)s1 (single isomer, unassigned) [Compound I-31], the IC50 falls from ≥ 20 µM to ≤ 1 µM. The second is the more potent here.

Going from NS(=O)(=O)c1ccc(C(=O)N[C@H]2CCCc3cc(Cl)ccc32)s1 (single isomer, unassigned) [Compound I-32] to NS(=O)(=O)c1ccc(C(=O)N[C@@H]2CCCc3cc(Cl)ccc32)s1 (single isomer, unassigned) [Compound I-33], the IC50 rises from ≤ 1 µM to ≥ 20 µM.

CN(c1ccc(C(=O)NC2CCc3cc(Cl)ccc32)cc1)S(C)(=O)=O (single isomer, unassigned) [Compound II-1, N-(5-chloroindan-1-yl)-4-[methyl(methylsulfonyl)amino]benzamide] and CS(=O)(=O)Cc1ccc(C(=O)NC2CCc3cc(Cl)ccc32)cc1 (single isomer, unassigned) [Compound II-5, N-(5-chloroindan-1-yl)-4-(methylsulfonylmethyl)benzamide] cannot be ordered by IC50: ≥ 20 µM for the first, ≥ 20 µM for the second.

CN(c1ccc(C(=O)NC2CCc3cc(Cl)ccc32)cc1)S(C)(=O)=O (single isomer, unassigned) [Compound II-2, N-(5-chloroindan-1-yl)-4-[methyl(methylsulfonyl)amino]benzamide] and CS(=O)(=O)Cc1ccc(C(=O)NC2CCc3cc(Cl)ccc32)cc1 (single isomer, unassigned) [Compound II-6, N-(5-chloroindan-1-yl)-4-(methylsulfonylmethyl)benzamide] cannot be ordered by IC50: ≤ 1 µM for the first, 1 to 20 µM for the second.

COc1ccc(C(=O)NC2CCc3cc(Cl)ccc32)cc1 (single isomer, unassigned) [Compound II-7, N-(5-chloroindan-1-yl)-4-methoxy-benzamide] and Nc1ccc(C(=O)N[C@H]2CCc3cc(Cl)ccc32)cc1 (single isomer, unassigned) [Compound II-16] cannot be ordered by IC50: ≥ 20 µM for the first, ≥ 20 µM for the second.

COc1ccc(C(=O)NC2CCc3cc(Cl)ccc32)cc1 (single isomer, unassigned) [Compound II-8, N-(5-chloroindan-1-yl)-4-methoxy-benzamide] and O=C(N[C@@H]1CCc2cc(Cl)ccc21)c1ccc(F)cc1 (single isomer, unassigned) [Compound II-31] cannot be ordered by IC50: 1 to 20 µM for the first, ≥ 20 µM for the second.

O=C(N[C@H]1CCc2cc(Cl)ccc21)c1ccc(F)cc1 (single isomer, unassigned) [Compound II-41] and CS(=O)(=O)c1ccc(C(=O)N[C@H]2CCCc3cc(Cl)ccc32)cc1 (single isomer, unassigned) [Compound II-55] cannot be ordered by IC50: ≥ 20 µM for the first, 1 to 20 µM for the second.

CS(=O)(=O)Nc1ccc(C(=O)NC2CCCc3cc(Cl)ccc32)cc1 (single isomer, unassigned) [Compound II-52, N-(6-chlorotetralin-1-yl)-4-(methanesulfonamido)benzamide] and CS(=O)(=O)Nc1ccc(C(=O)NC2CCc3cc(F)ccc32)cc1 (single isomer, unassigned) [Compound II-57, N-[5-fluoroindan-1-yl]-4-(methanesulfonamido)benzamide] cannot be ordered by IC50: ≥ 20 µM for the first, 1 to 20 µM for the second.

First: CS(=O)(=O)Nc1ccc(C(=O)NC2CCCc3cc(Cl)ccc32)cc1 (single isomer, unassigned) [Compound II-53, N-(6-chlorotetralin-1-yl)-4-(methanesulfonamido)benzamide]
Second: CS(=O)(=O)Nc1ccc(C(=O)NC2CCc3cc(F)ccc32)cc1 (single isomer, unassigned) [Compound II-59, N-[5-fluoroindan-1-yl]-4-(methanesulfonamido)benzamide]
The IC50 of the first is lower: ≤ 1 µM for the first, > 20 µM for the second. The first is the more potent here.

Going from CS(=O)(=O)Nc1ccc(C(=O)NC2CCc3cc(C(F)(F)F)ccc32)cc1 (single isomer, unassigned) [Compound II-56, 4-(methanesulfonamido)-N-[5-(trifluoromethyl)indan-1-yl]benzamide] to Cn1c(C(=O)N[C@@H]2CCc3cc(Cl)ccc32)ccc1S(N)(=O)=O [Compound I-13], the IC50 rises from ≤ 1 µM to ≥ 20 µM.

First: CS(=O)(=O)Nc1ccc(C(=O)NC2CCc3cc(C(F)(F)F)ccc32)cc1 (single isomer, unassigned) [Compound II-58, 4-(methanesulfonamido)-N-[5-(trifluoromethyl)indan-1-yl]benzamide]
Second: NS(=O)(=O)c1ccc(C(=O)N[C@@H]2CCc3cc(Cl)ccc32)o1 [Compound I-3]
The IC50 of the first is higher: > 20 µM for the first, 1 to 20 µM for the second. The second is the more potent here.

COc1ccc(C(=O)NC2CCc3cc(Cl)ccc32)c(O)c1 (single isomer, unassigned) [Compound III-1, N-(5-chloroindan-1-yl)-2-hydroxy-4-methoxy-benzamide] and Cc1oc(S(N)(=O)=O)cc1C(=O)N[C@@H]1CCc2cc(Cl)ccc21 [Compound I-11] cannot be ordered by IC50: > 20 µM for the first, ≥ 20 µM for the second.

COc1ccc(C(=O)NC2CCc3cc(Cl)ccc32)c(O)c1 (single isomer, unassigned) [Compound III-2, N-(5-chloroindan-1-yl)-2-hydroxy-4-methoxy-benzamide] and NS(=O)(=O)c1ccc(C(=O)N[C@@H]2CCc3cc(Cl)ccc32)s1 [Compound I-4] cannot be ordered by IC50: ≤ 1 µM for the first, ≤ 1 µM for the second.

Cn1nc(C(=O)N[C@@H]2CCc3cc(Cl)ccc32)cc1C1CC1 [Compound I-1] and Cn1nc(C2CC2)cc1C(=O)N[C@@H]1CCc2cc(Cl)ccc21 [Compound I-2] fall in the same range of IC50: 1 to 20 µM for the first, 1 to 20 µM for the second.

NS(=O)(=O)c1csc(C(=O)N[C@@H]2CCc3cc(Cl)ccc32)c1 [Compound I-5] and NS(=O)(=O)c1cc(C(=O)N[C@@H]2CCc3cc(Cl)ccc32)cs1 [Compound I-6] cannot be ordered by IC50: 1 to 20 µM for the first, ≤ 1 µM for the second.

Cn1cc(S(N)(=O)=O)cc1C(=O)N[C@@H]1CCc2cc(Cl)ccc21 [Compound I-7] and Cc1sc(C(=O)N[C@@H]2CCc3cc(Cl)ccc32)cc1S(N)(=O)=O [Compound I-8] cannot be ordered by IC50: ≥ 20 µM for the first, 1 to 20 µM for the second.

Cc1oc(C(=O)N[C@@H]2CCc3cc(Cl)ccc32)cc1S(N)(=O)=O [Compound I-9] and Cc1cc(S(N)(=O)=O)oc1C(=O)N[C@@H]1CCc2cc(Cl)ccc21 [Compound I-12] cannot be ordered by IC50: 1 to 20 µM for the first, ≥ 20 µM for the second.

Cc1cc(S(N)(=O)=O)sc1C(=O)N[C@@H]1CCc2cc(Cl)ccc21 [Compound I-10] showed an IC50 of 1 to 20 µM.
